# Tests used:
# Assay in all cases: KINOMEscan
# Format in all cases: binding
# Conditions in all cases: 1 μM of compound 4; read-out: POC
# TRKB = molecular target: T1, TRKB (Homo sapiens, UniProt Q16620)
# T1 construct: purchased Eurofins DiscoverX Corporation
# PIKFYVE = PIKFYVE (Homo sapiens, UniProt Q9Y2I7)
# EPHB2 = molecular target: T2, EPHB2 (Homo sapiens, UniProt P29323)
# T2 construct: purchased Eurofins DiscoverX (KINOMEscan service)
# [1] = molecular target: T3, EGFR(L747-E749del + A750P) (Homo sapiens, UniProt P00533, A750P/DEL747-749)
# T3 construct: purchased Eurofins DiscoverX (KINOMEscan service)
# [2] = molecular target: T4, ABL1(Y253F)-phosphorylated (Homo sapiens, UniProt P00519, Y253F)
# T4 construct: purchased Eurofins DiscoverX Corporation
# EGFR(L861Q) = molecular target: T5, EGFR(L861Q) (Homo sapiens, UniProt P00533, L861Q)
# T5 construct: purchased Eurofins DiscoverX (KINOMEscan service)
# LZK = LZK (Homo sapiens, UniProt O43283)
# TIE2 = molecular target: T6, TIE2 (Homo sapiens, UniProt Q02763)
# T6 construct: purchased Eurofins DiscoverX Corporation
# FES = molecular target: T7, FES (Homo sapiens, UniProt P07332)
# T7 construct: purchased Eurofins DiscoverX Corporation
# FLT3 = molecular target: T8, FLT3 (Homo sapiens, UniProt P36888)
# T8 construct: purchased Eurofins DiscoverX Corporation
# p38-delta = molecular target: T9, p38-delta (Homo sapiens, UniProt O15264)
# T9 construct: purchased Eurofins DiscoverX Corporation (KINOMEscan)
# TGFBR2 = molecular target: T10, TGFBR2 (Homo sapiens, UniProt P37173)
# T10 construct: purchased Eurofins DiscoverX Corporation
# IRAK4 = IRAK4 (Homo sapiens, UniProt Q9NWZ3)
# AXL = AXL (Homo sapiens, UniProt P30530)
# MYLK4 = MYLK4 (Homo sapiens, UniProt Q86YV6)
# RIPK2 = molecular target: T11, RIPK2 (Homo sapiens, UniProt O43353)
# T11 construct: purchased Eurofins DiscoverX Corporation (KINOMEscan screening service)
# PYK2 = molecular target: T12, PYK2 (Homo sapiens, UniProt Q14289)
# T12 construct: purchased Eurofins DiscoverX Corporation (KINOMEscan screening service)
# [3] = molecular target: T13, TYK2(JH1domain-catalytic) (Homo sapiens, UniProt P29597)
# T13 construct: TYK2(JH1domain-catalytic); purchased Eurofins DiscoverX
# FLT3(D835Y) = molecular target: T14, FLT3(D835Y) (Homo sapiens, UniProt P36888, D835Y)
# T14 construct: purchased Eurofins DiscoverX Corporation
# CAMK2A = CAMK2A (Homo sapiens, UniProt Q9UQM7)
# EPHA1 = molecular target: T15, EPHA1 (Homo sapiens, UniProt P21709)
# T15 construct: purchased Eurofins DiscoverX (KINOMEscan service)
# TSSK1B = molecular target: T16, TSSK1B (Homo sapiens, UniProt Q9BXA7)
# T16 construct: purchased Eurofins DiscoverX Corporation
# BUB1 = BUB1 (Homo sapiens, UniProt O43683)
# ACVR2A = ACVR2A (Homo sapiens, UniProt P27037)
# EPHB4 = molecular target: T17, EPHB4 (Homo sapiens, UniProt P54760)
# T17 construct: purchased Eurofins DiscoverX (KINOMEscan service)
# PIK3CA(H1047L) = PIK3CA(H1047L) (Homo sapiens, UniProt P42336, H1047L)
# KIT(A829P) = KIT(A829P) (Homo sapiens, UniProt P10721, A829P)
# FLT1 = molecular target: T18, FLT1 (Homo sapiens, UniProt P17948)
# T18 construct: purchased Eurofins DiscoverX Corporation
# MARK4 = MARK4 (Homo sapiens, UniProt Q96L34)
# SRPK2 = molecular target: T19, SRPK2 (Homo sapiens, UniProt P78362)
# T19 construct: purchased Eurofins DiscoverX (KINOMEscan service)
# MAP4K2 = MAP4K2 (Homo sapiens, UniProt Q12851)
# PLK3 = PLK3 (Homo sapiens, UniProt Q9H4B4)
# LRRK2(G2019S) = LRRK2(G2019S) (Homo sapiens, UniProt Q5S007, G2019S)
# LIMK1 = LIMK1 (Homo sapiens, UniProt P53667)
# PIK3C2G = PIK3C2G (Homo sapiens, UniProt O75747)
# DDR1 = DDR1 (Homo sapiens, UniProt Q08345)
# GRK3 = molecular target: T20, GRK3 (Homo sapiens, UniProt P35626)
# T20 construct: purchased Eurofins DiscoverX Corporation
# CIT = CIT (Homo sapiens, UniProt O14578)
# T18 sequence (P17948 27-1338): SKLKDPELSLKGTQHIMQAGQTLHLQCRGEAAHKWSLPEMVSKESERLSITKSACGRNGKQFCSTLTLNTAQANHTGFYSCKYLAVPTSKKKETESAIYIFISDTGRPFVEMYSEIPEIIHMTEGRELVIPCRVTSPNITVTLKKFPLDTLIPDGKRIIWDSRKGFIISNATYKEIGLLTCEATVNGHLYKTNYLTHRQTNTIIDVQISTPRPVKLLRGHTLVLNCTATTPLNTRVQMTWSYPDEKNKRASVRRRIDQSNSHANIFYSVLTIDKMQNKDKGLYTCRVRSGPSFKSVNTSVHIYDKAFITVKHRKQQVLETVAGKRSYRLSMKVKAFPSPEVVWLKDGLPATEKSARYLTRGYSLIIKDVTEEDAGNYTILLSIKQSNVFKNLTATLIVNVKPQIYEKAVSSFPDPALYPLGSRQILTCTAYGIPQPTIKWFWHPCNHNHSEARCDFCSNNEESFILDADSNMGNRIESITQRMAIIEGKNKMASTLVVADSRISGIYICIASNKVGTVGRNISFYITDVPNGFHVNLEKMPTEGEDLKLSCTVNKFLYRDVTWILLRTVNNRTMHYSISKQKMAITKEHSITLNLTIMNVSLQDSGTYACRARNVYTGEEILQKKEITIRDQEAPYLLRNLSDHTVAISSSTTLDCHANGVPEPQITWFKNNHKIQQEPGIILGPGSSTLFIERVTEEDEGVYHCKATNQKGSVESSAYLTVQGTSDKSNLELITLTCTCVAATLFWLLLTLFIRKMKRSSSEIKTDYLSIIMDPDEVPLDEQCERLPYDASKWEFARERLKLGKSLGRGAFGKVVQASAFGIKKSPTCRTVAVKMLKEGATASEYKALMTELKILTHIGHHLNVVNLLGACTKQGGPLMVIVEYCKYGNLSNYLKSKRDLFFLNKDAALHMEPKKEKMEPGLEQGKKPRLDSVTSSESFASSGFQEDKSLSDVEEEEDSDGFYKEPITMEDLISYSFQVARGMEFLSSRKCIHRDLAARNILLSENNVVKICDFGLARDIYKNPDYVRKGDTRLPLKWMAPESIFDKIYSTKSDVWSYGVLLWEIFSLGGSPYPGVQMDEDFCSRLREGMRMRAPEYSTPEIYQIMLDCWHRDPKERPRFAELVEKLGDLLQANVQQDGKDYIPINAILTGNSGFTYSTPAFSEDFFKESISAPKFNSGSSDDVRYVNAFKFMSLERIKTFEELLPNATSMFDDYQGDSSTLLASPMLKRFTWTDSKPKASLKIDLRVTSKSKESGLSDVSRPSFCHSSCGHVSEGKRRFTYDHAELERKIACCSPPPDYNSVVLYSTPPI
# AXL, sequence (P30530 26-894): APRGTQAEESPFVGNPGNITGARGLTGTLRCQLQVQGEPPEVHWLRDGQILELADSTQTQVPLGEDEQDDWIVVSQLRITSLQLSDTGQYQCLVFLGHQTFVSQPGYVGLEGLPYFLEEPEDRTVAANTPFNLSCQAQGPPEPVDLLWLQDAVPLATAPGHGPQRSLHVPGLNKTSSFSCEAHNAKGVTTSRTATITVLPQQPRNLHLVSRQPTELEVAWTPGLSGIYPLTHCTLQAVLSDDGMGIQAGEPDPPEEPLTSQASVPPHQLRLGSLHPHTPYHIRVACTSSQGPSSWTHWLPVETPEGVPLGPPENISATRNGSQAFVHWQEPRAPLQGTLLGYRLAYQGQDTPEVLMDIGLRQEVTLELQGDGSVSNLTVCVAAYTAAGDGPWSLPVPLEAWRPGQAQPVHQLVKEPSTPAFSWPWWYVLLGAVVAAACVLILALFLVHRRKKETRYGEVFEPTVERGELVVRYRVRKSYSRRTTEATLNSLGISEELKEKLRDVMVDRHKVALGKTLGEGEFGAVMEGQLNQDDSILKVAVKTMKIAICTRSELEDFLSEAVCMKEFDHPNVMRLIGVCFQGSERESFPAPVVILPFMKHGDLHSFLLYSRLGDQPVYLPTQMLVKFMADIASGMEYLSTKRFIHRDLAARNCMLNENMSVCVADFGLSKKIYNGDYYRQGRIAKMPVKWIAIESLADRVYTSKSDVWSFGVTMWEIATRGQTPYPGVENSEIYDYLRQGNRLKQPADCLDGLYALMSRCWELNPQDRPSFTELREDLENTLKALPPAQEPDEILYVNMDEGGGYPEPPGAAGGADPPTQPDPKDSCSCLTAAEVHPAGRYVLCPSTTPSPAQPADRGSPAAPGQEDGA
# T10 sequence (P37173 23-567): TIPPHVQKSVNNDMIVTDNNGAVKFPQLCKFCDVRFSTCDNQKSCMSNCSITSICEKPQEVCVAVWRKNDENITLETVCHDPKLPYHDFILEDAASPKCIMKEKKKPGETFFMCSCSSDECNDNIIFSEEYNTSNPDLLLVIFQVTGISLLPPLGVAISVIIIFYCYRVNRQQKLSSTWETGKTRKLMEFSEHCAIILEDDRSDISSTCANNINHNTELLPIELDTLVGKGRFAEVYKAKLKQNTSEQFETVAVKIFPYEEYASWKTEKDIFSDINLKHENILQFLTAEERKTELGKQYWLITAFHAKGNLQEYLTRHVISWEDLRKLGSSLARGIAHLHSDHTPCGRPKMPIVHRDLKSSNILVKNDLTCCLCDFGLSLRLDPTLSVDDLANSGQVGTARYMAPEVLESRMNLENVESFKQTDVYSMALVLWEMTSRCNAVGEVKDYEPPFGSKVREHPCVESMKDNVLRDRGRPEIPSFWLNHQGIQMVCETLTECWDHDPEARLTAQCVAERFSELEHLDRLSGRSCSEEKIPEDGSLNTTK
# T19 sequence (P78362 whole entry): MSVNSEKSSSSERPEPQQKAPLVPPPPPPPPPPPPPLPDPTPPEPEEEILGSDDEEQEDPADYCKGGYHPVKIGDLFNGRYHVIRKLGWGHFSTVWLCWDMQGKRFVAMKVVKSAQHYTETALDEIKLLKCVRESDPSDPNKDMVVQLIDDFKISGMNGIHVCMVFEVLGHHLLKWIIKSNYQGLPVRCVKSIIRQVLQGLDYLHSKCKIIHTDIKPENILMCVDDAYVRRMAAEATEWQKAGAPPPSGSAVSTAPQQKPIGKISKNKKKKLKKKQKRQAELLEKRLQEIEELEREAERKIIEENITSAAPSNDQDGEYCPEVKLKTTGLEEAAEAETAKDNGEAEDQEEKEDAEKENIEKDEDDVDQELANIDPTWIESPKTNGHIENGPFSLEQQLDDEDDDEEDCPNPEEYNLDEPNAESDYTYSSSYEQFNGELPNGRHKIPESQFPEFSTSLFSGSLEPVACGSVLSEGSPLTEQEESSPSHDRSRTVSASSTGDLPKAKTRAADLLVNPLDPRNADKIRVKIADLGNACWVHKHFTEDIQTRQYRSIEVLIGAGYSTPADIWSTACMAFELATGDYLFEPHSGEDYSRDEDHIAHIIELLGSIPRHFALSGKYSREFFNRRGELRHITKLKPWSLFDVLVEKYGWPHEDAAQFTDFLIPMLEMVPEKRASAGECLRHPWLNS
# T16 sequence (Q9BXA7 whole entry): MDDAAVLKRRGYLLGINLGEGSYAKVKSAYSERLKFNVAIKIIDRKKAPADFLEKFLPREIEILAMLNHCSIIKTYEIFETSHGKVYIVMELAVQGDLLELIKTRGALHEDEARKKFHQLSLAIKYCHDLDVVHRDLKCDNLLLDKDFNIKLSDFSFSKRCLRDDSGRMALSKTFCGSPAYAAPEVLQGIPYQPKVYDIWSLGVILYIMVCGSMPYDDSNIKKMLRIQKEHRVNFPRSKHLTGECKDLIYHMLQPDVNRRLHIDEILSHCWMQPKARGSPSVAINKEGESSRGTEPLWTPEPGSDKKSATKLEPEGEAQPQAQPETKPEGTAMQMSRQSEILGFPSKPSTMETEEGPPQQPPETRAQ
# CAMK2A, sequence (Q9UQM7 whole entry): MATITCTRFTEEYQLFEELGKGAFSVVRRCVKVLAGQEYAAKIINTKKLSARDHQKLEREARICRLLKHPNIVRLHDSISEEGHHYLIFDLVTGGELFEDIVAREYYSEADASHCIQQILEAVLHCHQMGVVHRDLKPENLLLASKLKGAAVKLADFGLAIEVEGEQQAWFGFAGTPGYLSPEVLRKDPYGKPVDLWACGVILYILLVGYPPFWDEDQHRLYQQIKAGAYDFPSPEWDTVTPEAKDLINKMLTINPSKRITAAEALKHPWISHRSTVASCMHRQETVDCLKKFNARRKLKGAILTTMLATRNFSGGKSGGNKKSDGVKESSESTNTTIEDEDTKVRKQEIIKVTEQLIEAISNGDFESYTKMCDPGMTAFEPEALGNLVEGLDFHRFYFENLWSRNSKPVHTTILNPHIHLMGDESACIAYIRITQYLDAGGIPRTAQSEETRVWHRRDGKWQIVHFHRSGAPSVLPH
# T1 sequence (Q16620 32-822): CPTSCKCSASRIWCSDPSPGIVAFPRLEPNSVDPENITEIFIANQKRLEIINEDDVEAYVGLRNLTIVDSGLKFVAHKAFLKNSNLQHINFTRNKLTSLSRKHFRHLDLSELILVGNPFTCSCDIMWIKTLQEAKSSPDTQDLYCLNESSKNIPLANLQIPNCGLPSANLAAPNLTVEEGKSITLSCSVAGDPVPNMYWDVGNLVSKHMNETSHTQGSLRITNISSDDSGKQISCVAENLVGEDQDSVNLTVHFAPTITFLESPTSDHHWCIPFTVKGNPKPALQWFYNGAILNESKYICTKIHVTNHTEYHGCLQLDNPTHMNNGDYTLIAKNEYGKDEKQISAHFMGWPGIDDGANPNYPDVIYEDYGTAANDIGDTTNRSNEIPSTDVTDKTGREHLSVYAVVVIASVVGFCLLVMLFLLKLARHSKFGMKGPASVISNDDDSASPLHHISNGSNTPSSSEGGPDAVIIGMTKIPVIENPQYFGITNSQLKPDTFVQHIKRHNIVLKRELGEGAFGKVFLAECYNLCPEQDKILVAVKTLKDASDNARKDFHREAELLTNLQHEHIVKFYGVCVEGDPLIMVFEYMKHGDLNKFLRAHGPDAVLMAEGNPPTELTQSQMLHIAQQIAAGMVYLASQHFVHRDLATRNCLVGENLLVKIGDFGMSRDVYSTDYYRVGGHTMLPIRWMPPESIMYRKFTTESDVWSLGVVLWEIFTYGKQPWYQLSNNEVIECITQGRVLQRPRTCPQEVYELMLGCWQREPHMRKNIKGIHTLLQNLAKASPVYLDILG
smiles,measurement,setting,value
"C=CC(=O)Nc1ccc(OC)c(Nc2cc(-c3[nH]c(CC)nc3-c3cccc(NC(=O)c4cccc5c4NC(=O)c4ccccc4N5)c3)ccn2)c1 [Compound 4, N-(3-(5-(2-((5-Acrylamido-2-methoxyphenyl)amino)pyridin-4-yl)-2-ethyl-1H-imidazol-4-yl)phenyl)-11-oxo-10,11-dihydro-5H-dibenzo[b,e][1,4]diazepine-9-carboxamide]",remaining binding at 1 µM,TRKB,100%
same,remaining binding at 1 µM,PIKFYVE,94%
same,remaining binding at 1 µM,EPHB2,100%
same,remaining binding at 1 µM,[1],8%
same,remaining binding at 1 µM,[2],72%
same,remaining binding at 1 µM,EGFR(L861Q),2.7%
same,remaining binding at 1 µM,LZK,90%
same,remaining binding at 1 µM,TIE2,71%
same,remaining binding at 1 µM,FES,28%
same,remaining binding at 1 µM,FLT3,100%
same,remaining binding at 1 µM,p38-delta,100%
same,remaining binding at 1 µM,TGFBR2,75%
same,remaining binding at 1 µM,IRAK4,43%
same,remaining binding at 1 µM,AXL,98%
same,remaining binding at 1 µM,MYLK4,95%
same,remaining binding at 1 µM,RIPK2,62%
same,remaining binding at 1 µM,PYK2,100%
same,remaining binding at 1 µM,[3],91%
same,remaining binding at 1 µM,FLT3(D835Y),96%
same,remaining binding at 1 µM,CAMK2A,65%
same,remaining binding at 1 µM,EPHA1,100%
same,remaining binding at 1 µM,TSSK1B,95%
same,remaining binding at 1 µM,BUB1,100%
same,remaining binding at 1 µM,ACVR2A,77%
same,remaining binding at 1 µM,EPHB4,100%
same,remaining binding at 1 µM,PIK3CA(H1047L),100%
same,remaining binding at 1 µM,KIT(A829P),56%
same,remaining binding at 1 µM,FLT1,100%
same,remaining binding at 1 µM,MARK4,92%
same,remaining binding at 1 µM,SRPK2,100%
same,remaining binding at 1 µM,MAP4K2,36%
same,remaining binding at 1 µM,PLK3,87%
same,remaining binding at 1 µM,LRRK2(G2019S),100%
same,remaining binding at 1 µM,LIMK1,79%
same,remaining binding at 1 µM,PIK3C2G,50%
same,remaining binding at 1 µM,DDR1,90%
same,remaining binding at 1 µM,GRK3,100%
same,remaining binding at 1 µM,CIT,6.3%
